# Patent US4165384A, “Amide substituted phenoxy propanol amines” (priority 1974, dated 1979)
# Where two headings read alike, the source gives them in different places.
# Tests used:
# [1] = biological target: T1, cardial β-receptors (Felis catus, UniProt Q9TST6); experiment: Block of isoprenaline, heart rate (HR), reserpinized anesthetized cat; type: in vivo; settings: iv, read-out: Block of isopren ED50 HR
# T1 construct: from tissue; host or cells: heart in situ of anesthetized, reserpinized, vagotomized cat (in vivo, heart rate)
# T1 sequence (Q9TST6 whole entry): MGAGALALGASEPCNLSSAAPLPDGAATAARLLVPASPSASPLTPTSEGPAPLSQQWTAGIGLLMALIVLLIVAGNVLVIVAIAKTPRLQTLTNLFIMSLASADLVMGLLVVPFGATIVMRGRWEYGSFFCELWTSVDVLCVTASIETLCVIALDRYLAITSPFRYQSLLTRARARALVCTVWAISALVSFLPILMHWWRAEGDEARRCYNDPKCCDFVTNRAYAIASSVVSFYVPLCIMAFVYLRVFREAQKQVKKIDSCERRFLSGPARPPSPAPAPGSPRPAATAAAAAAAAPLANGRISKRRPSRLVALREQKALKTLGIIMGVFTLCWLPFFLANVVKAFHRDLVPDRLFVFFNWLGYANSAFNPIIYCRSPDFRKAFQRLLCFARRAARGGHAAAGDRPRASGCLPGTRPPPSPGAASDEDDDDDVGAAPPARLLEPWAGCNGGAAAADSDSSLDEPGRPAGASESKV
# Experimental: (§1) The β-receptor blocking agents of the present invention were tested as regards their biological properties. All compounds were thereby tested in anesthetized cats (males and females weighing 2.5-3.5 kg) pretreated with reserpine (5 mg/kg body weight administered intra musculary) about 16 hours before the experiments. The animals were pretreated with reserpine in order to eliminate the endogenous sympathetic control of heart rate and vascular smooth muscle tone. The cats were anaesthetized with pentobarbital (30 mg/kg body weight administered i.p.) and artifically ventilated with room air. A bilateral vagotomy was performed in the neck. Blood pressure was obtained from a cannulated carotid artery and heart rate was registered from a cardiotachometer, triggered by the electrocardiogram. (ECG) Intrinsic beta-mimetic activity on the heart was seen as increased heart rate after drug administration. The test compounds were given intravenously in logarithmically increasing doses. The values obtained were plotted on dose-response curves, from which affinity values (ED50) were estimated. At the end of each experiment high doses of isoprenaline were given in order to obtain the maximal heart rate response.
# [2] = biological target: T2, vascular β-receptors (Felis catus, UniProt Q9TST5); experiment: Block of isoprenaline, PR (vascular), reserpinized anesthetized cat; type: in vivo; settings: iv, read-out: Block of isopren ED50 PR
# T2 construct: from tissue; host or cells: vascular smooth muscle in situ of anesthetized, reserpinized cat (in vivo, isoprenaline vasodilation)
# T2 sequence (Q9TST5 whole entry): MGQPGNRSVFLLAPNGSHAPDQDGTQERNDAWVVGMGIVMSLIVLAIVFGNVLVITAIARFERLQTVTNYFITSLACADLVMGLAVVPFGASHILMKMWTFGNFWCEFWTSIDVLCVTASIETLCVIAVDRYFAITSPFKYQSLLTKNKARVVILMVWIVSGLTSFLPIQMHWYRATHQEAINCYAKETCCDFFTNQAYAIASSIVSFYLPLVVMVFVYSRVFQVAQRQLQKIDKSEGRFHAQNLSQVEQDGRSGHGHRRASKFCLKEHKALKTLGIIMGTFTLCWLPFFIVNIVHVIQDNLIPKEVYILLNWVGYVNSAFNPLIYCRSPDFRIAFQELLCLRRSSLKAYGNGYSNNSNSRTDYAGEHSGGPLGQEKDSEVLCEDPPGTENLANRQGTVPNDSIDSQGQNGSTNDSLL
# Experimental: as §1
# [3] = test system: heart; experiment: Intrinsic β-mimetic activity on the heart (increased heart rate), reserpinized cat; type: in vivo; settings: i.v.
# Experimental: as §1
# [4] = Effect on arterial blood pressure in conscious dogs; type: in vivo, Beagle dogs; settings: conscious dog, after 1.5 mg/kg i.v.; for ΔBP Supino: supine
# Experimental: The compounds were also tested on conscious dogs. Beagle dogs were trained to be lying quietly and to be lifted to an erect position by placing their forelegs on a table for 2 minutes. Arterial blood pressure was registered via a blood pressure transducer attached to the dog at the heart level. Heart rate was triggered from the ECG. All dogs were pretreated with methylscopolamine to avoid vagal influences. Recordings were taken before and 15 and 75 min after administration of the test compound, first in supine position for 2 min and then in the erect position for 2 minutes. The test compounds were given in increasing doses with 2 hours intervals.
# [5] = reserpinized cat, i.v., heart rate
Structure (SMILES),"ED50 ([2]; reserpinized cat, i.v., PR)","ED50 [1, 5]",Intrinsic activity [3],ΔBP Erect [4],ΔBP Supino [4],ED50 ([1]; cat),ED50 ([2]; cat)
"C=CCc1ccccc1OCC(O)CNC(C)COc1ccccc1C (stereo not drawn) [Ex 6, 1-[1-methyl-2-(2-methylphenoxy)-ethylamino]-3-(2-allylphenoxy)propanol-2]",0.5 mg/kg,0.5 mg/kg,+24 beats/min,,,,
"COC(=O)NCCc1ccc(OCCNCC(O)COc2ccccc2C)cc1 (stereo not drawn) [Ex 9, 1-[4-(2-(2-methoxycarbonylamino)ethyl)phenoxyethylamino]-3-(2-methylphenoxy)-propanol-2]",2.4 mg/kg,0.3 mg/kg,+40 beats/min,,,,
"COCCc1ccc(OCC(O)CNC(C)C)cc1 (stereo not drawn) [Metroprolol, 1-isopropylamino-3-[4-(2-methoxyethyl)phenoxy]-propanol-2, reference compound]",,,0 beats/min,-3 mm Hg,-5 mm Hg,0.2 mg/kg,4.7 mg/kg
"COCCc1ccc(OCC(O)CNCCOc2ccc(C(N)=O)cc2)cc1 (stereo not drawn) [Ex 3, 1-[2-(4-carbamylphenoxy)ethylamino]-3-(2-methoxyethyl)phenoxypropanol-2]",8.5 mg/kg,1.1 mg/kg,0 beats/min,,,,
"C=CCc1ccccc1OCC(O)CNC(C)COc1ccc(C(N)=O)cc1 (stereo not drawn) [Ex 5, 1-[1-methyl-2-(4-carbamylphenoxy)ethylamino]-3-(2-allylphenoxy)propanol-2]",0.2 mg/kg,0.05 mg/kg,+15 beats/min,-42 mm Hg,-43 mm Hg,,
"C=CCc1ccccc1OCC(O)CNCCOc1ccc(C(N)=O)cc1 (stereo not drawn) [Ex 1, 1[2-(4-carbamylphenoxy)-ethylamino]-3-(2-allylphenoxy)propanol-2]",1.8 mg/kg,0.3 mg/kg,0 beats/min,-45 mm Hg,-28 mm Hg,,
"CC(C)NCC(O)COc1cccc2ccccc12 (stereo not drawn) [Propranolol, 1-isopropylamino-3-(1-naphtoxy)-propanol-2, reference compound]",,,0 beats/min,0 mm Hg,+5 mm Hg,,
"Cc1ccc(Cl)c(OCC(O)CNCCOc2ccc(C(N)=O)cc2)c1 (stereo not drawn) [Ex 2, 1-[2-(4-carbamylphenoxy)ethylamino]-3-(2-chloro-5-methylphenoxy)propanol-2]",4.6 mg/kg,0.3 mg/kg,0 beats/min,,,,
"NC(=O)c1ccc(OCCNCC(O)COc2ccccc2Cl)cc1 (stereo not drawn) [Ex 11, 1-[2-(4-carbamoylphenoxy)ethylamino]-3-(2-chlorophenoxy)propanol-2]",1 mg/kg,0.05 mg/kg,+16 beats/min,-20 mm Hg,-28 mm Hg,,

# Continued, in another order:
"ED50 ([2]; reserpinized cat, i.v., PR)",Structure (SMILES),"ED50 [1, 5]",Intrinsic activity [3],ΔBP Erect [4],ΔBP Supino [4],ED50 ([1]; cat),ED50 ([2]; cat)
0.3 mg/kg,C#CCOc1ccccc1OCC(O)CNCCOc1ccc(C(N)=O)cc1 (stereo not drawn) [Ex 18],0.04 mg/kg,+13 beats/min,,,,
< 8.5 mg/kg,"NC(=O)c1ccc(OCCNCC(O)COc2ccccc2OCC(=O)NCCO)cc1 (stereo not drawn) [Ex 20, 1-[2-(4-carbamylphenoxy)ethylamino]-3-[2-(ω-hydroxyethylaminocarbonylmethoxy)phenoxy]-propanol-2]",0.03 mg/kg,,,,,
35 mg/kg,"CC(=O)Nc1ccc(OCC(O)CNC(C)C)cc1 (stereo not drawn) [Practolol, 4-(2-hydroxy-3-isopropylaminopropoxy)acetanilide, reference compound]",0.3 mg/kg,+15 beats/min,,,,
< 8.5 mg/kg,NC(=O)Cc1ccccc1OCC(O)CNCCOc1ccc(C(N)=O)cc1 (stereo not drawn) [Ex 19],1.7 mg/kg,0 beats/min,,,,
1.5 mg/kg,C=CCOc1ccccc1OCC(O)CNCCOc1ccc(C(N)=O)cc1 (stereo not drawn) [Ex 17],0.1 mg/kg,+8 beats/min,-46 mm Hg,-23 mm Hg,,
